# In US12258354B2, “AhR modulators” (IDEAYA BIOSCIENCES, INC., priority 2018, dated 2025):
# Biological target: T1, hAhR (Homo sapiens, UniProt P35869)
# T1 construct: Stably integrated DRE-luciferase cell lines were generated by transducing the both cell lines with Cignal XRE luciferase reporter; endogenous in cells; host or cells: HEPG2 DRE-Luc cells (only the XRE luciferase reporter was transduced)
# T1 sequence (P35869 11-848): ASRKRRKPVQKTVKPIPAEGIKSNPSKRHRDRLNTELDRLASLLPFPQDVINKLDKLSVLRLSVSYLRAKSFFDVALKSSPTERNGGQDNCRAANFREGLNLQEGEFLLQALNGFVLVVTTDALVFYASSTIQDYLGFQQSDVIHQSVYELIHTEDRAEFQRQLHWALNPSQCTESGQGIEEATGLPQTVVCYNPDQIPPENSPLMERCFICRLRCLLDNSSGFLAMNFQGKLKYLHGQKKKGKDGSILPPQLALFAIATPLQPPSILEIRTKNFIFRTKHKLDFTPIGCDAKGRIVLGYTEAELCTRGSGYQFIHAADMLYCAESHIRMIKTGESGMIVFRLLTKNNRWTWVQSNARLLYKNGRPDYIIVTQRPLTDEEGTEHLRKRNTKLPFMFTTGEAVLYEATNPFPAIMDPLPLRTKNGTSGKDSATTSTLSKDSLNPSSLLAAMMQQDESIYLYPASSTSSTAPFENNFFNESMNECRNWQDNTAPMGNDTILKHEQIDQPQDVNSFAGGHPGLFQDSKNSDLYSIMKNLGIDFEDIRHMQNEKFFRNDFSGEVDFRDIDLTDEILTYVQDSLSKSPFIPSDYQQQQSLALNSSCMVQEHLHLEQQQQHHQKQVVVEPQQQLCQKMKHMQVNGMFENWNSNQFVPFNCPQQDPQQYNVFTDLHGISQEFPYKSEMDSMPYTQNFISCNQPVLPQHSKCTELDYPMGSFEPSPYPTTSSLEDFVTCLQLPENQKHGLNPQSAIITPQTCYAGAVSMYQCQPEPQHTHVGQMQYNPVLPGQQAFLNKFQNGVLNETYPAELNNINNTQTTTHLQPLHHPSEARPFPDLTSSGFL
# Experiment: DRE-luciferase transcriptional reporter assay in HEPG2 DRE-Luc cells, TCDD-induced (antagonist mode)
# Format: cell-based
# Conditions: relative IC50, 3 nM TCDD, 24-hour incubation, firefly luciferase readout
# Protocol: HEPG2 and HEPA1C1C7 cells were maintained in MEM and αMEM without nucleosides supplemented with 10% heat inactivated FBS respectively. Stably integrated DRE-luciferase cell lines were generated by transducing the both cell lines with Cignal XRE luciferase reporter (Qiagen) lentiviral particles according to the manufacturer protocol. For both cell lines stably integrated reporter cell lines were selected for the presence of 2 μg/mL puromycin. Following selection of stably integrated cell line pools, clonal cell lines were isolated by limiting dilution in 96-well plates. Transcriptional assays were performed by seeding 100 μL of cells at a density of 250,000 or 100,000 cells/mL, for HEPG2 and HEPA1C1C7 DRE-Luc cells respectively, into 96-well cell culture plates in OptiMEM supplemented with 0.5% heat inactivated FBS and allowed to attach overnight. For modulator assays, the compounds were added in a semi-log dose response using a D300e Digital Dispenser (Tecan) followed normalization with vehicle (DMSO). Immediately following compound addition 10 μL of 2,3,7,8-Tetrachlorodibenzo-p-dioxin (TCDD) was added to the cells to a final concentration of 3 nM or 0.3 nM for the HEPG2 and HEPA1C1C7 DRE-Luc cells respectively. Following 24-hour incubation, the medium was removed and the cells were lysed in 25 μL of Reporter Lysis Buffer (Promega). Firefly luciferase activity was measured immediately following the addition of 50 μL Luciferase Assay Reagent (Promega). The percent maximal activity for each point was determined using the following equation: (RLUsample−RLUvehicle−TCDD)/(RLUvehicle+TCDD RLUvehicle−TCDD)*100. The relative IC50, defined as the compound concentration required to reduce the TCDD induced response between the top and bottom plateau of each individual dose response curve by half, for each compound was determined using Prism 7 (GraphPad Software).
row,IC50 [nM],Structure (SMILES)
1,< 200,"Cc1cc(N2CCn3ncc(C)c3C2=O)c(F)cc1-c1ccc2nc(C(F)(F)F)cc(C)c2n1 [compound 022, 5-(2-fluoro-5-methyl-4-(8-methyl-6-(trifluoromethyl)-1,5-naphthyridin-2-yl)phenyl)-3-methyl-6,7-dihydropyrazolo[1,5-a]pyrazin-4 (5H)-one]"
2,1000 to 10000,"Cc1cc(N2CCn3ncc(C)c3C2=O)c(C)cc1-c1ccc2cc(C(F)(F)F)ccc2n1 [compound 023, 5-(2,5-dimethyl-4-(6-(trifluoromethyl)quinolin-2-yl)phenyl)-3-methyl-6,7-dihydropyrazolo[1,5-a]pyrazin-4 (5H)-one]"
3,< 200,"Cc1cc(N2CCn3ncc(C)c3C2=O)c(F)cc1-c1ccc2cc(C(F)(F)F)ccc2n1 [compound 024, 5-(2-fluoro-5-methyl-4-(6-(trifluoromethyl)quinolin-2-yl)phenyl)-3-methyl-6,7-dihydropyrazolo[1,5-a]pyrazin-4 (5H)-one]"
4,< 200,"Cc1cc(N2CCn3ncc(C)c3C2=O)c(F)cc1-c1ncc2cc(C(F)(F)F)ccc2n1 [compound 025, 5-(2-fluoro-5-methyl-4-(6-(trifluoromethyl)quinazolin-2-yl)phenyl)-3-methyl-6,7-dihydropyrazolo[1,5-a]pyrazin-4 (5H)-one]"
5,< 200,"Cc1cc(N2CCn3ncc(C)c3C2=O)c(F)cc1-c1ncc2cc(C(F)(F)F)cc(C)c2n1 [compound 026, 5-(2-fluoro-5-methyl-4-(8-methyl-6-(trifluoromethyl)quinazolin-2-yl)phenyl)-3-methyl-6,7-dihydropyrazolo[1,5-a]pyrazin-4 (5H)-one]"
6,< 200,"Cc1cc(-c2ccc3nc(C(F)(F)F)ccc3n2)ccc1N1CCc2cnn(C)c2C1=O [compound 027, 1-methyl-6-(2-methyl-4-(6-(trifluoromethyl)-1,5-naphthyridin-2-yl)phenyl)-1,4,5,6-tetrahydro-7H-pyrazolo[3,4-c]pyridin-7-one]"
7,< 200,"Cc1cc(-c2ccc3nc(C(F)(F)F)cc(C)c3n2)ccc1N1CCc2cnn(C)c2C1=O [compound 028, 1-methyl-6-(2-methyl-4-(8-methyl-6-(trifluoromethyl)-1,5-naphthyridin-2-yl)phenyl)-1,4,5,6-tetrahydro-7H-pyrazolo[3,4-c]pyridin-7-one]"
8,< 200,"Cc1cc(-c2ncc3cc(C(F)(F)F)ccc3n2)ccc1N1CCOc2cnn(C)c2C1=O [compound 029, 1-methyl-7-(2-methyl-4-(6-(trifluoromethyl)quinazolin-2-yl)phenyl)-6,7-dihydro-1H-pyrazolo[3,4-f][1,4]oxazepin-8 (5H)-one]"
9,< 200,"Cc1cc(-c2ccc3nc(C(F)(F)F)ccc3n2)ccc1N1CCOc2cnn(C)c2C1=O [compound 030, 1-methyl-7-(2-methyl-4-(6-(trifluoromethyl)-1,5-naphthyridin-2-yl)phenyl)-6,7-dihydro-1H-pyrazolo[3,4-f][1,4]oxazepin-8 (5H)-one]"
10,< 200,"Cc1cc(-c2ccc3nc(C(F)(F)F)cc(C)c3n2)ccc1N1CCOc2cnn(C)c2C1=O [compound 031, 1-methyl-7-(2-methyl-4-(8-methyl-6-(trifluoromethyl)-1,5-naphthyridin-2-yl)phenyl)-6,7-dihydro-1H-pyrazolo[3,4-f][1,4]oxazepin-8 (5H)-one]"
11,1000 to 10000,"Cc1cc(N2CCOc3cnn(C)c3C2=O)c(C)cc1-c1ccc2nc(C(F)(F)F)ccc2n1 [compound 032, 7-(2,5-dimethyl-4-(6-(trifluoromethyl)-1,5-naphthyridin-2-yl)phenyl)-1-methyl-6,7-dihydro-1H-pyrazolo[3,4-f][1,4]oxazepin-8 (5H)-one]"
12,< 200,"Cc1cc(-c2ncc3cc(C(F)(F)F)ccc3n2)ccc1N1CCOc2cn(CC#N)nc2C1=O [compound 035, 2-(7-(2-methyl-4-(6-(trifluoromethyl)quinazolin-2-yl)phenyl)-8-oxo-5,6,7,8-tetrahydro-2H-pyrazolo[3,4-f][1,4]oxazepin-2-yl)acetonitrile]"

row,Structure (SMILES),IC50 [nM]
1,Cc1cc(-c2ncc3cc(C(F)(F)F)ccc3n2)ccc1N1CCOc2cn[nH]c2C1=O [compound 033],< 200
